{"source": "patent US11767330B2", "about": "“Citrate salt, pharmaceutical compositions, and methods of making and using the same” (Foghorn Therapeutics Inc., priority 2021, dated 2023)", "key": {"[1]": {"tested_on": "SYO-1 human biphasic synovial sarcoma tumor cells", "experiment": "SYO-1 xenograft tumor growth (Example 11)", "assay_type": "in vivo", "conditions": "1 mg/kg, i.p., daily, 3 weeks, NOD SCID mice", "protocol": "(§1) Method: NOD SCID mice (Beijing Anikeeper Biotech, Beijing) were inoculated subcutaneously on the right flank with the single cell suspension of SYO-1 human biphasic synovial sarcoma tumor cells (5×106) in 100 μL Dulbecco's Modified Eagle Medium (DMEM) with 10% fetal bovine serum (FBS). The mice were randomized into either control group [10% dimethyl sulfoxide (DMSO), 40% polyethylene glycol (PEG400) and 50% water], or treatment group D1 when the mean tumor size reached about 117 mm^3. Mice were dosed daily through intraperitoneal (i.p.) route over the course of 3 weeks. All dose volumes were adjusted by body weights in terms of mg/kg."}, "[2]": {"experiment": "Tolerability by % body weight change (Example 11)", "assay_type": "in vivo", "conditions": "1 mg/kg, i.p., daily, 3 weeks", "protocol": "as §1"}}, "data": [{"molecule": "COc1cc(-c2cn(C)c(=O)c3cnc(N4CCC4)cc23)cc(OC)c1CN1CCC(CN2CCC3(CC2)CN(c2ccc4c(c2)C(=O)N(C2CCC(=O)NC2=O)C4)C3)CC1", "note": "(racemic) [Compound D1, 3-[6-(7-[[1-([4-[6-(azetidin-1-yl)-2-methyl-1-oxo-2,7-naphthyridin-4-yl]-2,6-dimethoxyphenyl]methyl)piperidin-4-yl]methyl]-2,7-diazaspiro[3.5]nonan-2-yl)-1-oxo-3H-isoindol-2-yl]piperidine-2,6-dione]", "values": [{"measurement": "tumor growth", "setting": "[1]", "result": "tumor growth inhibition"}, {"measurement": "tolerability based on % body weight change", "setting": "[2]", "result": "well tolerated"}]}]}
